What is called IC50 is the concentration needed to halve the response being measured.

Data on seven compounds can be found in US5284862A, “Derivatives of 2-carboxyindoles having pharmaceutical activity” (Warner-Lambert Company, priority 1992, dated 1994).

In assay [1] the target is T1, strychnine insensitive glycine receptor which is located on the NMDA receptor complex (Rattus norvegicus, UniProt P35439).
T1 construct: from tissue
As to the kind of experiment: glycine binding assay ([3H]-Gly). The conditions noted are these: for IC50: [3H]-glycine binding; for inhibition at 10 µM: read-out: [3H]-Gly, % Inh. at 10 μM. Here is the method:
Specifically, the compounds of the present invention have activity as antagonists at the strychnine insensitive glycine receptor which is located on the NMDA receptor complex. As such, the compounds of the present invention are NMDA receptor antagonists. Also, the compounds of the present invention have activity as AMPA and kainate receptor antagonists.
The glycine binding assay is performed essentially as described by W. Frost White, et al, Journal of Neurochemistry 1989;53(2):503-12.

The test system of the next assay is cortical neuronal cells. Nature of the assay: glutamate-induced lactate dehydrogenase (LDH) efflux assay. The assay is classed as cell-based. The conditions noted are these: glutamate exposure 5 minutes; LDH released into the culture medium 1 day after exposure. The procedure: The glutamate-induced lactate dehydrogenase (LDH) efflux assay is also used to measure the activity of the compounds of the present invention. Procedures for evaluating neurotoxicity in cortical neuronal cells by measuring efflux of LDH are carried out similarly as described by J. Y. Koh and D. W. Choi, J. Neurosci. Methods 1987;20:83-90. Only mature ([…] in vitro) cortical cultures were selected for study. Cells were exposed for 5 minutes to a glutamate exposure solution. Compounds tested were added to the glutamate exposure medium. In all experiments the glutamate exposure was removed and fresh buffer was added. Overall neuronal injury was quantitatively assessed by measurement of LDH released into the culture medium 1 day after glutamate exposure (see J. G. Klingman, D. M. Hartley, D. W. Choi, J. Neurosci. Methods 1989;31:47-51) using a 96-well plate reader.
(In general: LDH leaks from cells whose membrane has failed.)

The target in the next assay is AMPA receptor. Nature of the assay: AMPA binding assay ([3H]-AMPA). The settings on record: [3H]-AMPA binding; unit inferred. An excerpt: The AMPA binding assay may also be performed to provide an activity profile for the compounds of the present invention.

As to `O=C(O)/C=C/c1c(C(=O)O)[nH]c2cc(Cl)cc(Cl)c12`, the IC50 in assay [1] turned out to be 0.18 µM; in the assay on cortical neuronal cells, 10.2 µM; on AMPA receptor, 203 µM.
In the case of `O=C(CCc1c(C(=O)O)[nH]c2cc(Cl)cc(Cl)c12)NS(=O)(=O)c1ccccc1`, the IC50 in assay [1] worked out at 0.068 µM; with cortical neuronal cells, 7.8 µM; on AMPA receptor, 113 µM.
The like results for `CS(=O)(=O)NC(=O)CCc1c(C(=O)O)[nH]c2cc(Cl)cc(Cl)c12` were, in that order, 0.543 µM, 21.5 µM and 80 µM.
For the compound `O=C(CCCc1c(C(=O)O)[nH]c2cc(Cl)cc(Cl)c12)NS(=O)(=O)c1ccccc1`, the inhibition at 10 µM in assay [1] was found to be 89%. The same compound had an IC50 at AMPA receptor of 108 µM.
Turning to `[N-]=[N+]=Nc1cccc(S(=O)(=O)NC(=O)CCc2c(C(=O)O)[nH]c3cc(Cl)cc(Cl)c23)c1`, the IC50 in assay [1] came out at 0.079 µM; in the assay with cortical neuronal cells, 6 µM; on AMPA receptor, 150 µM.
In the case of `O=C(/C=C/c1c(C(=O)O)[nH]c2cc(Cl)cc(Cl)c12)NS(=O)(=O)c1ccccc1`, the inhibition at 10 µM in assay [1] was 87%. The same compound had an IC50 at AMPA receptor of 122 µM.
The like results for `O=C(/C=C/c1c(C(=O)O)[nH]c2cc(Cl)cc(Cl)c12)NCc1ccccc1` were, in that order, 84% and 213 µM.
